The text below walks through data of patent US12497364B2, “Compound for the determination of the protein FKBP12 and a sensor unit comprising it” (UNIVERSITA DEGLI STUDI DI FIRENZE, priority 2019, dated 2025).

The target of assay [1] is T1, FKBP12 (Homo sapiens, UniProt P62942).
T1 construct: purchased Interuniversity Magnetic Resonance Consortium of Paramagnetic Metalloproteins, CIRMMP (Florence, Italy); host or cells: Escherichia coli
The assay can be described thus: QCM microgravimetric measurement of FKBP12 bound to the self-assembled monolayer (SAM), Langmuir fit. It counts as binding. As to conditions: for Binding of FKBP12 in solution to the SAM (FIG. 5): mass of FKBP12 bound versus FKBP12 concentration in solution. The protocol: FKBP12 expressed in Escherichia coli, molecular weight 11900, purity >95% was supplied by the Interuniversity Magnetic Resonance Consortium of Paramagnetic Metalloproteins, CIRMMP (Florence, Italy). The purity of FKBP12 was determined by SDS electrophoresis. K2HPO4 and KH2PO4 for the preparation of the phosphate buffer was obtained from Sigma-Aldrich (Italy). All measurements were made using ultrapure water (resistivity=18 MΩ cm, pH=5.6 at 20° C.) obtained with a Milli-RO equipment coupled with a Milli-Q set up (Millipore, Italy).
(§1) The concentration of the stock solutions of FKBP12 in PBS buffer (pH 7.4, 0.15 M NaCl) was checked by UV/Vis measurements using ε280=9970 M^−1 cm^−1. The stock solution of FKBP12 was diluted to reach the concentrations used for the calibration straight line.
(§2) The microgravimetric analyses were carried out with a Quartz-Crystal microbalance (QCM-Z 500 from KSV-Finland). This instrumentation is equipped with a Peltier element for controlling the temperature inside the measurement chamber. All experiments were performed at a temperature of T=20.0±0.1° C.
The frequency and dissipation data for all recorded harmonics were processed with the QCMBrowse software which directly provides adsorbed mass in nanograms/cm^2, thickness of the monolayer in nanometers and viscoelastic parameters of the system.
The gold-coated piezoelectric quartz support covered with the SAMs as described above in Example 2, was brought into contact with solutions of increasing concentration of the FKBP12 protein and the concentration of the protein bound to the self-assembled monolayer SAM at saturation was recorded with gravimetric measurements.
Two different miniaturized versions of an open chamber QCM quartz crystal microbalance (from QCM KSV, Finland and an OpenQCM, Italy modified by the inventors) were also used as a device, allowing the use of small measurement volumes (less than 100 microliters) of the solution to analyse.
Again with reference to FIG. 5, it can be observed that in all the examined cases there is a saturation trend of the curves, which flatten once the sites available for binding the FKBP protein are exhausted. Considering the structure reached at this concentration as the final equilibrium structure, the relative structural parameters reported in the following Table 2 were calculated.
The trend shown in FIG. 5 can be rationalized through the Langmuir binding and/or adsorption equation: Δm/A=(Δm/A)sat[C]/[C]+kd
The application of this model to the data obtained from the microgravimetric measurements allowed to obtain a detailed picture of the interaction mechanism and the energetics involved, in particular we obtained the maximum surface density of FKBP12 (to saturation), the dissociation constant Kd for FKBP12/receptor in the nanosensor and free energy of physi-sorption. The values obtained are shown in Table 3 below, for all the types of SAMs examined.

The target of assay [2] is T1, FKBP12. The assay can be described thus: Duration of operation of the SAM and its reconditioning (QCM). As to conditions: reconditioning with imidazole or with ethanol. As to the method: The microgravimetric measurements described above were repeated on freshly prepared SAMs or aged up to 4 months, finding the same results, at least for SAMs stored in closed containers saturated with N2.
Measurements were also carried out on SAMs already used for a measurement, after reconditioning with imidazole or with ethanol. […] The same result was achieved by leaving in incubation the SAM in solution of the reconditioning solvent.

Assay [3] concerns the target T1, FKBP12. The assay can be described thus: Calibration straight line for FKBP12 on the SAM nanosensor (QCM). As to the method:
as §1, §2
From the analysis of the calibration straight lines obtained for the systems examined, the linearity intervals and the experimental limit of detection (LOD) were obtained (wherein LOD means the smallest amount of measurable analyte with acceptable accuracy and precision) for each sensor tested, considering that the maximum sensitivity to the mass in the cell for liquids of the instrumentation used is 0.5 ng/cm^2. This limit may vary depending on the analytical instrumentation adopted for the same SAM used.

T1 sequence (P62942 whole entry): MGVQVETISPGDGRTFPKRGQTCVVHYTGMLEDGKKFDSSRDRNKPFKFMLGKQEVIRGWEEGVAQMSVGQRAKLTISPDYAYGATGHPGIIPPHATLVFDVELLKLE

For `CCCCCCCCCCCCS` [C12SH, reference compound], the “Binding of FKBP12 in solution to the SAM (FIG. 5)” value in assay [1] was “no interaction with the FKBP protein in solution is observed”.

Turning to `O=C(CCCCCCCCCCS)Oc1ccc(C(=O)C(=O)N2CCCC[C@H]2C(=O)NCCCc2ccccc2)cc1` [GPS-SH1, (S)-4-(2-oxo-2-(2-((3-phenylpropyl)carbamoyl)piperidin-1-yl)acetyl)phenyl 11-mercaptoundecanoate], the “(M/Area)max (Langmuir FIT), maximum surface density of FKBP12 at saturation” value in assay [1] (Table 2, SAM on gold-coated quartz crystal) was 123 ng/cm^2. In addition, the affinity in assay [1] (Table 2, SAM on gold-coated quartz crystal, T=20.0 °C, pseudo-Kd for mixed systems), expressed as Kd, was 0.75 nM. Further, the “(Maa/Area)max (Langmuir FIT)” value in assay [1] (Table 3) is 123 ng/cm^2. For the same molecule, in assay [1] (Table 3, experimental data, at saturation), the “Area available for FKBP12 to saturation” value came to 1910 Å^2. For the same molecule, the “Binding of FKBP12 in solution to the SAM (FIG. 5)” value in assay [1] is on record as “binds”. Further, the “QCM frequency before addition of FKBP12 versus after rinsing with the reconditioning solvent” value in assay [2] is recorded as “identical”. In assay [3] (FKBP12 concentration in solution, QCM mass sensitivity 0.5 ng/cm^2), the “Linear interval of the response to FKBP12” value is 10 to 800 pM. The “Limit of Detection (LOD)” value in assay [3] (LOD = 3x (y-intercept standard deviation)/slope of the calibration curve) is listed as 8.0 pM.
